US9079866B2, “Flap modulators” (JANSSEN PHARMACEUTICA NV, priority 2013, dated 2015)
Structures can show the parent of a compound that is named as a salt. Where two headings read alike, the source gives them in different places.

Assays:
human FLAP = human FLAP (Homo sapiens (Human), UniProt P20292); assay: FLAP binding assay (HTRF format)
Procedure, shortened: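 HTRF ratio read-out; two independent plates, samples in duplicate on each, values averaged across plates.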

[1] = test system: leukotriene pathway in human whole blood (LTB4 levels); assay: Human whole blood assay (A23187-stimulated LTB4); format: cell-based; conditions: read-out: LTB4 IC50 1:1
Procedure, shortened: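 Heparinised human whole blood, diluted 1:1 in RPMI, was pre-incubated with test compounds for 15 min at 37° Celsius, then stimulated with A23187 (7 μg/mL) for 30 min at 37° Celsius. Plasma LTB4 was measured by immunoassay kit; IC50 from 4-parameter fit; single replicate, at least one healthy donor.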

[2] = human FLAP wild type, HTRF format, average of two plates, duplicates
[3] = Homo sapiens, human whole blood diluted 1:1 in RPMI, A23187-stimulated LTB4
[4] = Homo sapiens, human whole blood diluted 1:1, A23187-stimulated
[5] = read-out: FLAP Binding wild type HTRF Ki

human FLAP, sequence (P20292 whole entry): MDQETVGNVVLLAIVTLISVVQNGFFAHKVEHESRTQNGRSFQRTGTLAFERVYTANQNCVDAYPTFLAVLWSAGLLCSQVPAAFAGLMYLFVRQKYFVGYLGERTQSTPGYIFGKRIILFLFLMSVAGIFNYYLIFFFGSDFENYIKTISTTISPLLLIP

SMILES | Ki (human FLAP; [2]) | IC50 [1, 3] | Ki (human FLAP; wild type FLAP, HTRF format) | IC50 [1, 4] | further results
Nc1cnc(-c2ccc(-c3ccccc3CS(=O)(=O)NCCO)cc2F)cn1 [Example 221, 1-[4′-(5-Aminopyrazin-2-yl)-3′-fluorobiphenyl-2-yl]-N-(2-hydroxyethyl)methanesulfonamide formic acid salt] | 300 nM | 854 nM | – | – | –
Nc1cnc(-c2ccc(-c3ccc(C(F)(F)F)cc3CNCCO)cc2F)cn1 [Example 607, 2-({[4′-(5-Aminopyrazin-2-yl)-3′-fluoro-4-(trifluoromethyl)biphenyl-2-yl]methyl}amino)ethanol] | – | – | 138 nM | 152 nM | –
N#Cc1nc(N)cnc1-c1ccc(-c2ccccc2Oc2ncccn2)cc1F [Example 747, 6-Amino-3-[3-fluoro-2′-(pyrimidin-2-yloxy)biphenyl-4-yl]pyrazine-2-carbonitrile] | – | – | 27.1 nM | 262 nM | –
COc1cc(NS(=O)(=O)c2ccccc2-c2ccc(-c3cnc(N)cn3)c(F)c2)nc(OC)n1 [Example 166, 4′-(5-Aminopyrazin-2-yl)-N-(2,6-dimethoxypyrimidin-4-yl)-3′-fluorobiphenyl-2-sulfonamide] | 164 nM | 4460 nM | – | – | –
CC(C)(CO)NS(=O)(=O)c1ccccc1-c1ccc(-c2ccc(N)nc2)c(F)c1 [Example 665, 4′-(6-Aminopyridin-3-yl)-3′-fluoro-N-(1-hydroxy-2-methylpropan-2-yl)-[1,1′-biphenyl]-2-sulfonamide] | – | – | 2.6 nM | 22.4 nM | –
CC(C)(C)NS(=O)(=O)c1ccccc1-c1ccc(-c2cnc3c(c2)OCCN3)c(F)c1 [Example 393, N-tert-Butyl-4′-(3,4-dihydro-2H-pyrido[3,2-b][1,4]oxazin-7-yl)-3′-fluorobiphenyl-2-sulfonamide] | 1 nM | 12 nM | – | – | –
N#Cc1nc(N)cnc1-c1ccc(-c2ccccc2S(=O)(=O)C2CC2)cc1F [Example 729, 6-Amino-3-[2′-(cyclopropylsulfonyl)-3-fluorobiphenyl-4-yl]pyrazine-2-carbonitrile] | – | – | 64.7 nM | 861 nM | –
CC(C)S(=O)(=O)Cc1ccccc1-c1ccc(-c2cnc(N)cn2)c(F)c1 [Example 751, 5-(3-Fluoro-2′-{[(1-methylethyl)sulfonyl]methyl}biphenyl-4-yl)pyrazin-2-amine] | – | – | 80.9 nM | 1060 nM | –
Nc1cc(Sc2ccccc2-c2ccc(-c3cnc(N)nc3)c(F)c2)ncn1 [Example 334, 5-{2′-[(6-Aminopyrimidin-4-yl)sulfanyl]-3-fluorobiphenyl-4-yl}pyrimidin-2-amine formate salt] | 12 nM | 67 nM | – | – | –
Nc1ccc(-c2ccc(-c3ccccc3S(=O)(=O)N3CCS(=O)(=O)CC3)cc2F)cn1 [Example 354, 4-((4′-(6-Aminopyridin-3-yl)-3′-fluoro-[1,1′-biphenyl]-2-yl)sulfonyl)thiomorpholine 1,1-dioxide] | 37 nM | 93 nM | – | – | –
Nc1cnc(Sc2ccccc2-c2ccc(-c3cnc(N)nc3)c(F)c2)cn1 [Example 744, 5-{2′-[(5-Aminopyrazin-2-yl)sulfanyl]-3-fluorobiphenyl-4-yl}pyrimidin-2-amine] | – | – | 15.5 nM | 132 nM | –
CC(C)(C)C(=O)Nc1ncccc1-c1ccc(-c2cnc3[nH]ccc3c2)c(F)c1 [Example 802, N-{3-[3-Fluoro-4-(1H-pyrrolo[2,3-b]pyridin-5-yl)phenyl]pyridin-2-yl}-2,2-dimethylpropanamide] | – | – | > 10000 nM | 0.994 nM | –
CC(CO)NS(=O)(=O)c1ccccc1-c1ccc(-c2ccc(N)nc2)c(F)c1 (stereo in doubt) [Example 352, (R)-4′-(6-Aminopyridin-3-yl)-3′-fluoro-N-(1-hydroxypropan-2-yl)-[1,1′-biphenyl]-2-sulfonamide] | 16 nM | – | – | – | IC50 ([1]; human whole blood diluted 1:1 in RPMI, A23187-stimulated LTB4): 64 nM
CCNS(=O)(=O)Cc1ccccc1-c1ccc(-c2cnc(N)cn2)c(F)c1 [Example 231, 1-[4′-(5-Aminopyrazin-2-yl)-3′-fluorobiphenyl-2-yl]-N-ethylmethanesulfonamide formate salt] | – | 564 nM | – | – | Ki (human FLAP; [5]): 135 nM
COc1c(-c2ccccc2S(=O)(=O)NC(C)(C)C)ccc(-c2cnc(N)cn2)c1F [Example 836, 4′-(5-Aminopyrazin-2-yl)-N-tert-butyl-3′-fluoro-2′-methoxybiphenyl-2-sulfonamide] | – | – | 25.5 nM | 595 nM | –
C[C@@H](NS(=O)(=O)c1ccccc1-c1ccc(-c2cnc(N)nc2)c(F)c1)C(F)(F)F [Example 268, 4′-(2-Aminopyrimidin-5-yl)-3′-fluoro-N-[(1R)-2,2,2-trifluoro-1-methylethyl]biphenyl-2-sulfonamide trifluoroacetic acid salt] | – | 56 nM | – | – | Ki (human FLAP; [5]): 11 nM
O=S(=O)(c1ccccc1-c1ccc(-c2cnc3[nH]ccc3n2)c(F)c1)N1CCCC1 [Example 372, 2-[3-Fluoro-2′-(pyrrolidin-1-ylsulfonyl)biphenyl-4-yl]-5H-pyrrolo[2,3-b]pyrazine] | 25 nM | 31 nM | – | – | –
Nc1ncc(-c2ccc(-c3ccccc3Sc3ncncc3N)cc2F)cn1 [Example 331, 5-{2′-[(5-Aminopyrimidin-4-yl)sulfanyl]-3-fluorobiphenyl-4-yl}pyrimidin-2-amine formate salt] | 14 nM | 62 nM | – | – | –
Nc1cnc(-c2ccc(-c3ccccc3S(=O)(=O)N3CCOCC3)cc2F)cn1 [Example 44, 5-[3-Fluoro-2′-(morpholin-4-ylsulfonyl)biphenyl-4-yl]pyrazin-2-amine] | 7 nM | 58 nM | – | – | –
Cc1nccc(Oc2ccccc2-c2ccc(-c3cnc(N)cn3)c(F)c2)n1 [Example 541, 5-{3-Fluoro-2′-[(2-methylpyrimidin-4-yl)oxy]biphenyl-4-yl}pyrazin-2-amine] | – | – | 12 nM | 66 nM | –
CCCS(=O)(=O)c1ccccc1-c1ccc(-c2cnc(N)cn2)c(F)c1 [Example 192, 5-[3-Fluoro-2′-(propylsulfonyl)biphenyl-4-yl]pyrazin-2-amine] | 58 nM | 171 nM | – | – | –
C[C@@H](O)CNS(=O)(=O)c1ccccc1-c1ccc(-c2cnc(N)cn2)c(F)c1 [Example 97, (R)-4′-(5-aminopyrazin-2-yl)-3′-fluoro-N-(2-hydroxypropyl)-[1,1′-biphenyl]-2-sulfonamide] | 8 nM | 42 nM | – | – | –
CNS(=O)(=O)c1ccccc1-c1ccc(-c2cnc3[nH]ccc3n2)c(F)c1 [Example 379, 3′-Fluoro-N-methyl-4′-(5H-pyrrolo[2,3-b]pyrazin-2-yl)biphenyl-2-sulfonamide] | 1 nM | 33 nM | – | – | –
NCCNS(=O)(=O)c1ccccc1-c1ccc(-c2cnc(N)cn2)c(F)c1 [Example 152, N-(2-Aminoethyl)-4′-(5-aminopyrazin-2-yl)-3′-fluorobiphenyl-2-sulfonamide] | 81 nM | 537 nM | – | – | –
C[C@@H](CO)NS(=O)(=O)c1ccccc1-c1ccc(-c2ncc(N)nc2C#N)c(F)c1 [Example 711, 4′-(5-Amino-3-cyanopyrazin-2-yl)-3′-fluoro-N-[(1S)-2-hydroxy-1-methylethyl]biphenyl-2-sulfonamide] | – | – | 41.7 nM | 142 nM | –
Nc1ncc(-c2ccc(-c3ccccc3S(=O)(=O)NCCO)cc2F)cn1 [Example 275, 4′-(2-Aminopyrimidin-5-yl)-3′-fluoro-N-(2-hydroxyethyl)biphenyl-2-sulfonamide trifluoroacetic acid salt] | – | 192 nM | – | – | Ki (human FLAP; [5]): 65 nM
